From the CheMixHub drug solubility set

Test: xn = mol fraction of the nth substance listed, in the solute-free solvent

CN1CCN(C2=Nc3cc(Cl)ccc3Nc3ccccc32)CC1 + CN1CCCC1=O + O
solubility (g/100 g solution)
Conditions | x2 = 0.0198 | x2 = 0.04347 | x2 = 0.07228 | x2 = 0.1081 | x2 = 0.1538 | x2 = 0.2143 | x2 = 0.2979 | x2 = 0.421 | x2 = 0.6207
278.15 K | 0.00909 | 0.045 | 0.169 | 0.497 | 1.2 | 2.31 | 3.88 | 5.87 | 7.69
283.15 K | 0.0126 | 0.0614 | 0.224 | 0.65 | 1.5 | 2.92 | 4.64 | 6.96 | 9.05
288.15 K | 0.0173 | 0.0846 | 0.297 | 0.832 | 1.86 | 3.58 | 5.6 | 8.28 | 10.5
293.15 K | 0.0228 | 0.113 | 0.388 | 1.02 | 2.32 | 4.34 | 6.81 | 9.65 | 12
298.15 K | 0.0318 | 0.148 | 0.501 | 1.3 | 2.84 | 5.22 | 7.94 | 11.2 | 13.9
303.15 K | 0.0423 | 0.192 | 0.629 | 1.6 | 3.48 | 6.19 | 9.35 | 12.8 | 15.9
308.15 K | 0.0547 | 0.257 | 0.793 | 2.01 | 4.21 | 7.31 | 10.9 | 14.7 | 18
313.15 K | 0.071 | 0.329 | 1.02 | 2.46 | 5.04 | 8.54 | 12.7 | 16.8 | 20.2
318.15 K | 0.0919 | 0.419 | 1.25 | 2.99 | 5.94 | 9.98 | 14.5 | 19 | 22.5
323.15 K | 0.12 | 0.537 | 1.56 | 3.57 | 6.98 | 11.6 | 16.5 | 21.4 | 25.1
328.15 K | 0.155 | 0.673 | 1.89 | 4.3 | 8.24 | 13.4 | 18.7 | 24 | 28

Cc1c(Br)cccc1C(=O)O + CN(C)C=O + CC#N
solubility (g/100 g solution)
Conditions | x2 = 0.106 | x2 = 0.224 | x2 = 0.355 | x2 = 0.502 | x2 = 0.668 | x2 = 0.858
278.15 K | 6.4 | 10.6 | 14.2 | 17.6 | 20.8 | 23.6
283.15 K | 7.69 | 12.4 | 16.8 | 20.7 | 24.4 | 25.8
288.15 K | 8.95 | 14.9 | 19.8 | 24.3 | 28.2 | 32
293.15 K | 11 | 17.3 | 23 | 28 | 32.5 | 36.6
298.15 K | 12.6 | 20.2 | 26.5 | 32.1 | 37.1 | 41.6
303.15 K | 14.5 | 23.3 | 30.5 | 36.5 | 42.1 | 47.1
308.15 K | 17.1 | 26.8 | 34.4 | 41.3 | 47.2 | 52.7
313.15 K | 19.5 | 30.5 | 38.9 | 46.3 | 52.7 | 58.5
318.15 K | 22.6 | 34.5 | 43.6 | 51.4 | 58.1 | 64.3
323.15 K | 26 | 38.8 | 48.6 | 56.7 | 63.8 | 70.3
328.15 K | 29.2 | 43.1 | 53.5 | 62 | 69.3 | 76

Nc1[nH]c(=O)ncc1F + CN(C)C=O + CC(C)O
solubility (g/100 g solution)
Conditions | 283.15 K | 288.15 K | 293.15 K | 298.15 K | 303.15 K | 308.15 K | 313.15 K | 318.15 K | 323.15 K
x2 = 0.0837 | 0.0457 | 0.057 | 0.0702 | 0.0871 | 0.105 | 0.126 | 0.149 | 0.174 | 0.203
x2 = 0.1705 | 0.0578 | 0.0715 | 0.0887 | 0.107 | 0.128 | 0.152 | 0.178 | 0.209 | 0.245
x2 = 0.2605 | 0.0731 | 0.0892 | 0.107 | 0.13 | 0.155 | 0.183 | 0.214 | 0.248 | 0.285
x2 = 0.354 | 0.0896 | 0.107 | 0.127 | 0.153 | 0.182 | 0.214 | 0.249 | 0.288 | 0.333
x2 = 0.4512 | 0.106 | 0.126 | 0.151 | 0.18 | 0.213 | 0.248 | 0.284 | 0.327 | 0.376
x2 = 0.5522 | 0.121 | 0.143 | 0.17 | 0.203 | 0.236 | 0.273 | 0.315 | 0.36 | 0.413
x2 = 0.6573 | 0.137 | 0.16 | 0.189 | 0.221 | 0.258 | 0.298 | 0.342 | 0.391 | 0.447
x2 = 0.7668 | 0.153 | 0.18 | 0.209 | 0.242 | 0.281 | 0.322 | 0.369 | 0.426 | 0.484
x2 = 0.8809 | 0.173 | 0.201 | 0.23 | 0.267 | 0.306 | 0.351 | 0.402 | 0.46 | 0.524

Cl.N=C(N)N + CN(C)C=O + CCCO
solubility (g/100 g solution)
Conditions | 278.15 K | 283.15 K | 288.15 K | 293.15 K | 298.15 K | 303.15 K | 308.15 K | 313.15 K | 318.15 K | 323.15 K
x2 = 0.08378 | 10.4 | 11.5 | 12.6 | 13.4 | 14.4 | 15.6 | 16.5 | 17.8 | 18.9 | 20.5
x2 = 0.2607 | 20.4 | 21.6 | 22.3 | 23 | 23.9 | 24.8 | 25.6 | 26.3 | 27.2 | 28.1
x2 = 0.4515 | 27.6 | 28.9 | 29.7 | 30.7 | 31.8 | 32.8 | 33.4 | 34.5 | 35.3 | 36.7
x2 = 0.657 | 35.6 | 37.3 | 38.3 | 39.1 | 40.5 | 41.6 | 42.5 | 43.5 | 44.9 | 46.1
x2 = 0.8809 | 43.5 | 45.6 | 46.6 | 47.1 | 48.8 | 49.9 | 50.7 | 52.4 | 53.7 | 54

Nc1ccc(Oc2ccc(N)cc2)cc1 + CN(C)C=O + CCO
solubility (g/100 g solution)
Conditions | 293.15 K | 298.15 K | 303.15 K | 308.15 K | 313.15 K | 318.15 K | 323.15 K | 328.15 K | 333.15 K
x2 = 0.06545 | 0.79 | 0.873 | 1.16 | 1.2 | 1.53 | 1.69 | 2.06 | 2.54 | 2.99
x2 = 0.1361 | 1.59 | 1.71 | 2.14 | 2.18 | 2.57 | 2.99 | 3.53 | 4.13 | 4.74
x2 = 0.2127 | 2.76 | 2.98 | 3.46 | 3.65 | 4.23 | 4.88 | 5.56 | 6.41 | 7.1
x2 = 0.2959 | 4.51 | 4.86 | 5.41 | 5.88 | 6.29 | 7.33 | 8.28 | 9.19 | 10.3
x2 = 0.3866 | 6.9 | 7.38 | 7.95 | 8.83 | 9.66 | 10.6 | 11.6 | 12.8 | 14.1
x2 = 0.486 | 9.91 | 10.6 | 11.3 | 12.2 | 13.3 | 14.3 | 15.5 | 16.9 | 18.1
x2 = 0.5952 | 13.6 | 14.3 | 15.1 | 16.1 | 17.2 | 18.5 | 19.6 | 21 | 22.4
x2 = 0.716 | 17.6 | 18.4 | 19.2 | 20.3 | 21.5 | 22.6 | 23.9 | 25.2 | 26.7
x2 = 0.8501 | 21.8 | 22.5 | 23.2 | 24 | 25.6 | 26.7 | 27.9 | 29.2 | 30.6
